Laboratory results as given in patent EP3650451A1, “COMPOUNDS AND THEIR USES AS FLUORESCENT PROBES” (Consejo Superior de Investigaciones Cientificas, priority 2017, dated 2019).

Assays:
SCC38 cells [1] = test: Inhibition of mitochondrial staining by (R)-palmitoylcarnitine (CACT substrate), flow cytometry; assay type: cell-based, human; conditions: co-incubation, probe 50 nm, (R)-palmitoylcarnitine 100, 250 and 500 nM
Experimental: The SCC38 cells were co-incubated with the indicated concentrations of (R)-palmitoylcarnitine and 50 nM of 4 (A) or 50 nM of MitoTracker (B) before analyzing by flow cytometry. The data represent the mean fluorescence intensity (MFI) of the stained cells (upper panels) and representative images of the cytometry profiles (lower panels). • Fig. 7.
To test if CACT was in fact involved in the channeling of 4 to the mitochondrial matrix, we firstly studied the effect of (R)-(+)-palmitoylcarnitine, a natural CACT substrate, in cell labeling by 4.

SCC38 cells [2] = test: Co-localization by co-staining with MitoTracker Red, fluorescence microscopy of live cells; assay type: cell-based, human; conditions: compound 4 50 nM, MitoTracker® Red 25 nM, 30 minutes
Experimental: (§1) The cell assays were carried out on two human cell lines: SCC38 and HeLa. The SCC38 line is derived from human laryngeal epidermoid carcinoma patients, while HeLa, the first human cell line established in culture, is derived from cervical cancer. The culture medium used for both cell lines was DMEM (Dulbecco's Modified Eagle's Medium) supplemented with 10% of fetal bovine serum (FBS), 100 U/mL of penicillin, 200 µg/mL of streptomycin, 100 µmol/L of non-essential amino acids and 2 mmol/L of glutamine. The cultures were incubated at 37 °C and 5% of CO2.
These cell lines were stained with the fluorescent probes synthesized following the following protocol: 30,000-50,000 SCC38 cells were plated on 24-well glass-bottomed plates and cultured to 70% confluence. The culture medium was then removed from the well and washed at least three times with DMEM medium without additives. Next, 1 mL of DMEM and the corresponding fluorescent compound was added to the well. The cells were incubated at 37 °C for 30 minutes, after which the medium was removed and newly washed with DMEM. Lastly, complete medium was added and the cells were observed under the microscope. Microscopy analysis was performed using a Zeiss Axio Observer Z1 microscope with AxioCam MRM and ApoTome 2 (Carl Zeiss, Germany) with different 40X 63X oil immersion objectives. The cells were also stained with MitoTracker® Red CMXRos (Thermo Fisher), following the manufacturer's instructions, with the aim of carrying out comparative studies with the new fluorescent markers synthesized herein. Initially, both compounds 3 and 4 were used at a concentration of 50 nM, and staining time was also 30 minutes.
In order to confirm the specificity of the mitochondrial labeling, co-localization studies were carried out by co-staining with the commercial mitochondrial marker MitoTracker® Red in the cell line. Compound 4 was used at a concentration of 50 nM and MitoTracker® Red at 25 nM. Both compounds were added simultaneously and incubated for 30 minutes.

[3] = Time evolution of the photophysical properties in water; assay type: physicochemical; design: key to φ: fluorescence quantum yield, fraction (0.65 = 65%); conditions: for kfl / knr / εmax / λab / λfl / τ / φ: water
Experimental: Indeed, the fluorescence yield remains constant for 7 hours. However, due to the oligomerization of hydrolysis product 6 and to the ensuing precipitation of the resulting oligomers, fluorescence efficiency gradually decreases in 24 hours, although it maintains a quantum yield of 65%. […] Indeed, the diffusion of the dye outside of the cell organelle, which occurs in dyes not covalently bonded thereto, is one of the main problems in the development of fluorescent biological markers because it entails a significant reduction in fluorescent efficiency and, thus, in the accuracy and reproducibility of the experiments. The rational design of probe 4 must, therefore, prevent this loss of fluorescence signal and improve the quality and accuracy of the measurements, thereby enhancing its applicability as a biological probe.

HeLa = test: Kinetics of cell labeling by flow cytometry; assay type: cell-based, human; conditions: 50 nM, staining times 5, 15 and 30 min
Experimental: as §1
(§2) The kinetics of cell labeling with 4 was studied by flow cytometry with the SCC38 and HeLa cell lines, using MitoTracker® Red as a control marker, both at a concentration of 50 nM. The staining times studied were 5, 15, 30 and 45 minutes. After staining, the medium was removed, washed with PBS, trypsinized and the pellet was resuspended in 500 µL of PBS and introduced in the cytometer after filtration. A Beckman Coulter Cytomics FC500 Flow Cytometry Analyzer was used (Scientific-Technical Services, Universidad de Oviedo). Part of the resuspended cells were also plated and observed under the microscope.

SCC38 = test: Kinetics of cell labeling by flow cytometry; assay type: cell-based, human
Experimental: as §1, §2

CC1=CC(C)=[N+]2C1=C(c1c(C)cc(C)cc1C)c1c(C)cc(C)n1[B-]21OC(=O)C[C@H](C[N+](C)(C)C)O1 (stereo partly shown) [Compound 4]
effect of (R)-palmitoylcarnitine on fluorescence intensity (SCC38 cells [1]): concentration-dependent reduction of fluorescence intensity | location of the stain in the mitochondria (SCC38 cells [2]; co-staining): preferably located in its interior (the mitochondrial matrix) | co-localization with MitoTracker® Red (SCC38 cells [2]; added simultaneously): good co-localization | cytotoxic effects (SCC38 cells [2]; simultaneous co-staining): without interferences or cytotoxic effects | effect of hydrolysis on fluorescence emission ([3]; in water): does not entail a significant reduction in its fluorescence emission | time for which the fluorescence yield remains constant ([3]; in water): 7 h | quantum yield ([3]; in water, in 24 hours): 65% | kfl ([3]; time 00:00 (hours:min)): 1.14 10^8s^-1 | knr ([3]; time 00:00 (hours:min)): 0.23 10^8s^-1 | εmax ([3]; time 00:00 (hours:min)): 3.8 10^4 M^-1 CM^-1 | λab ([3]; time 00:00 (hours:min)): 499 nm | λfl ([3]; time 00:00 (hours:min)): 511 nm | τ ([3]; time 00:00 (hours:min)): 7.30 ns | φ ([3]; time 00:00 (hours:min)): 0.83 | kfl ([3]; time 00:10 (hours:min)): 1.14 10^8s^-1 | knr ([3]; time 00:10 (hours:min)): 0.24 10^8s^-1 | εmax ([3]; time 00:10 (hours:min)): 3.8 10^4 M^-1 CM^-1 | λab ([3]; time 00:10 (hours:min)): 498 nm | λfl ([3]; time 00:10 (hours:min)): 511 nm | τ ([3]; time 00:10 (hours:min)): 7.25 ns | φ ([3]; time 00:10 (hours:min)): 0.82 | kfl ([3]; time 00:25 (hours:min)): 1.14 10^8s^-1 | knr ([3]; time 00:25 (hours:min)): 0.25 10^8s^-1 | εmax ([3]; time 00:25 (hours:min)): 3.8 10^4 M^-1 CM^-1 | λab ([3]; time 00:25 (hours:min)): 498 nm | λfl ([3]; time 00:25 (hours:min)): 511 nm | τ ([3]; time 00:25 (hours:min)): 7.20 ns | φ ([3]; time 00:25 (hours:min)): 0.82 | kfl ([3]; time 00:50 (hours:min)): 1.16 10^8s^-1 | knr ([3]; time 00:50 (hours:min)): 0.24 10^8s^-1 | εmax ([3]; time 00:50 (hours:min)): 3.8 10^4 M^-1 CM^-1 | λab ([3]; time 00:50 (hours:min)): 498 nm | λfl ([3]; time 00:50 (hours:min)): 509 nm | τ ([3]; time 00:50 (hours:min)): 7.15 ns | φ ([3]; time 00:50 (hours:min)): 0.83 | kfl ([3]; time 01:20 (hours:min)): 1.17 10^8s^-1 | knr ([3]; time 01:20 (hours:min)): 0.25 10^8s^-1 | εmax ([3]; time 01:20 (hours:min)): 3.8 10^4 M^-1 CM^-1 | λab ([3]; time 01:20 (hours:min)): 498 nm | λfl ([3]; time 01:20 (hours:min)): 509 nm | τ ([3]; time 01:20 (hours:min)): 7.05 ns | φ ([3]; time 01:20 (hours:min)): 0.83 | kfl ([3]; time 02:00 (hours:min)): 1.18 10^8s^-1 | knr ([3]; time 02:00 (hours:min)): 0.25 10^8s^-1 | εmax ([3]; time 02:00 (hours:min)): 3.8 10^4 M^-1 CM^-1 | λab ([3]; time 02:00 (hours:min)): 497 nm | λfl ([3]; time 02:00 (hours:min)): 509 nm | τ ([3]; time 02:00 (hours:min)): 7.00 ns | φ ([3]; time 02:00 (hours:min)): 0.83 | kfl ([3]; time 03:00 (hours:min)): 1.18 10^8s^-1 | knr ([3]; time 03:00 (hours:min)): 0.26 10^8s^-1 | εmax ([3]; time 03:00 (hours:min)): 3.8 10^4 M^-1 CM^-1 | λab ([3]; time 03:00 (hours:min)): 497 nm | λfl ([3]; time 03:00 (hours:min)): 509 nm | τ ([3]; time 03:00 (hours:min)): 6.95 ns | φ ([3]; time 03:00 (hours:min)): 0.82 | kfl ([3]; time 04:00 (hours:min)): 1.19 10^8s^-1 | knr ([3]; time 04:00 (hours:min)): 0.26 10^8s^-1 | εmax ([3]; time 04:00 (hours:min)): 3.8 10^4 M^-1 CM^-1 | λab ([3]; time 04:00 (hours:min)): 497 nm | λfl ([3]; time 04:00 (hours:min)): 509 nm | τ ([3]; time 04:00 (hours:min)): 6.90 ns | φ ([3]; time 04:00 (hours:min)): 0.82 | kfl ([3]; time 05:00 (hours:min)): 1.22 10^8s^-1 | knr ([3]; time 05:00 (hours:min)): 0.26 10^8s^-1 | εmax ([3]; time 05:00 (hours:min)): 3.8 10^4 M^-1 CM^-1 | λab ([3]; time 05:00 (hours:min)): 497 nm | λfl ([3]; time 05:00 (hours:min)): 508 nm | τ ([3]; time 05:00 (hours:min)): 6.80 ns | φ ([3]; time 05:00 (hours:min)): 0.82 | kfl ([3]; time 06:00 (hours:min)): 1.23 10^8s^-1 | knr ([3]; time 06:00 (hours:min)): 0.26 10^8s^-1 | εmax ([3]; time 06:00 (hours:min)): 3.8 10^4 M^-1 CM^-1 | λab ([3]; time 06:00 (hours:min)): 496 nm | λfl ([3]; time 06:00 (hours:min)): 508 nm | τ ([3]; time 06:00 (hours:min)): 6.70 ns | φ ([3]; time 06:00 (hours:min)): 0.83 | kfl ([3]; time 07:00 (hours:min)): 1.24 10^8s^-1 | knr ([3]; time 07:00 (hours:min)): 0.26 10^8s^-1 | εmax ([3]; time 07:00 (hours:min)): 3.8 10^4 M^-1 CM^-1 | λab ([3]; time 07:00 (hours:min)): 496 nm | λfl ([3]; time 07:00 (hours:min)): 508 nm | τ ([3]; time 07:00 (hours:min)): 6.65 ns | φ ([3]; time 07:00 (hours:min)): 0.83 | kfl ([3]; time 24:00 (hours:min)): 1.03 10^8s^-1 | knr ([3]; time 24:00 (hours:min)): 0.54 10^8s^-1 | εmax ([3]; time 24:00 (hours:min)): 3.7 10^4 M^-1 CM^-1 | λab ([3]; time 24:00 (hours:min)): 496 nm | λfl ([3]; time 24:00 (hours:min)): 507 nm | τ ([3]; time 24:00 (hours:min)): 6.50 ns | φ ([3]; time 24:00 (hours:min)): 0.65 | change of staining intensity with incubation time (HeLa): clearly increased in intensity with incubation time | change of staining intensity with incubation time (SCC38; SCC38, 50 nM, staining times 5, 15 and 30 min): clearly increased in intensity with incubation time | labeling intensity at longer staining time (SCC38; new cytometry experiment, 45 min versus 30 min, cell line not stated): even more intense than with a time of 30 minutes
